# From patent US20230391868A1, “COMPOSITIONS FOR AND METHODS OF TREATING CANCER” (The George Washington University, priority 2022, published 2023)
# What was measured:
# SM1 cells = assay: Phagocytosis kinetics by live cell imaging; format: cell-based, mouse
# Description: After co-culture, slides were fixed in 4% paraformaldehyde. Slides were incubated overnight with primary anti-GFP antibody (Cell Signaling, 2956) at 4° C. Slides were incubated with goat anti-rabbit IgG conjugated to Alexa Fluor 488 (A11008, ThermoFisher). Slides were mounted using VECTASHIELD Antifade Mounting Medium with DAPI (H-1200-10, Vector Laboratories, Burlingame, CA). Slides were imaged using a Zeiss 710 confocal microscope. Phagocytosis was quantified using Fiji by Image J, and the percentage of phagocytosis was calculated by dividing the number of GFP+ macrophages containing red dye in their vesicles out of total GFP+ macrophages. Live imaging was performed following a similar protocol and images were acquired through ImageXpress Pico Automated Cell Imaging System (Molecular Devices, San Jose, CA, USA).
# To assess the phagocytosis kinetics in those groups, live cell imaging was performed and phagocytosis was tracked for 4 hr. after the macrophages and SM1 cells were co-cultured for an hour. Images were acquired every four minutes thereafter.
# SM1 melanoma tumors = assay: SM1 melanoma tumor growth in vivo; design: species or system mouse; conditions: SM1-bearing C57/Bl6 mice, NextA 20 mg/kg intraperitoneally, anti-CD47 100 μg intratumorally, every other day, vs vehicle control
# Description: Animal experiments were performed in accordance with protocol A354 approved by the Institutional Care and Use Committee (IACUC) at The George Washington University. Female C57BL/6 mice (4-6 weeks old) were purchased from Charles River Laboratories (Wilmington, Massachusetts, USA). Mice were injected subcutaneously in their right flank with 10^6 in vivo passaged SM1 melanoma cells suspended in 100 μL of PBS (Corning, 21-040-CV) at day 0. Cages were randomly assigned to different treatment groups, and mice were treated intraperitoneally with 100 μL of vehicle control or NextA at 20 mg/kg every other day when tumors became palpable, which was a week after tumor implantation.
# Six days after the first NextA treatment, mice were also treated intratumorally with 100 μg of αCD47 every two days (clone miap301, BE0270, BioXCell, Lebanon, NH, USA) until the end of the study. Tumor measurements were taken every other day using caliper measurements and calculated using the formula L×W^2/2. All animals were routinely monitored for early signs of toxicity. […]
# First, C57/Bl6 mice were inoculated with SM1 melanoma cells (n=15 mice per group). […] The concentrations of NextA and anti-CD47 were determined by performing drug and antibody titrations. Tumor growth was monitored every other day from when the tumors became palpable until the experimental endpoint.
# SM1 melanoma cells = assay: Cd47 mRNA upon IFNγ stimulation in SM1 cells; format: cell-based, mouse; conditions: IFNγ for 12 hours
# Description: (§1) qRT-PCR: Total RNA was extracted from cells using the Trizol reagent according to manufacturer's instructions (ThermoFisher Scientific, 15596018). Samples were then processed immediately or stored at −80° C. RNA was quantified using a NanoDrop One Spectrophotometer (ThermoFisher Scientific). The 260/280 ratios were routinely over 1.8. Sample cDNA was produced using the iScript cDNA synthesis kit (Bio-Rad, 1708891). Target mRNA was quantified using MyIQ single-color real-time PCR detection system from Bio-Rad (Bio-Rad, Hercules, CA) and iQ SYBR green Supermix (Bio-Rad, 1708882). The following primers were synthesized by Invitrogen (Waltham, MA) with sequences designed by Origene (Rockville, MD): mouse R-actin (MP200232), mouse Nos2 (MP208933), mouse MRC1 (MP207800), human R-actin (HP204660), human IL-1β (HP200544), human MRC1 (HP206121), human NOS2 (HP200591), human CD209 (HP214086), mouse SIRPα (MP215450), mouse LRP1 (MP207604), human LRP1 (HP206040), mouse MFGE8 (MP208190), human MFGE8 (HP225757), mouse CD36 (MP201923), human CD36 (HP200058), and mouse CD47 (MP201932). Primers for mouse ARG-1 (PPM31770C) and human SIRPα (QT01031051) were purchased from Qiagen (Hilden, Germany). […] Quantification is expressed in arbitrary units and target mRNA levels were normalized to R-actin expression.
# (§2) Although the mechanism by which IFNγ drives CD47 upregulation is unclear, IFNγ expression correlates to CD47 expression in skin cutaneous melanoma (Ye Z H, et al. (2021) Transl. Oncol. 14:101162). The kinetics of Cd47 mRNA in SM1 and B16 cells upon IFNγ stimulation (100 ng/mL) were evaluated and these mouse melanoma models were determined to have different kinetics (FIG. 9A-FIG. 9B). It was determined that 12 hours was a time point for both models to sustain the IFNγ-mediated upregulation. In FIG. 9B, the role of HDAC6 inhibitors NextA and Tubastatin A in abrogating Cd47 upregulation upon stimulation with IFNγ for 12 hours was evaluated.
# B16 melanoma cells = assay: Cd47 mRNA upon IFNγ stimulation in B16 cells; format: cell-based, mouse; conditions: IFNγ for 12 hours
# Description: as §1, §2
smiles,measurement,setting,value
"CCCCN(Cc1ccc(C(=O)NO)cc1)C(=O)Nc1ccccc1 [NextA, Nexturastat A]",maximum phagocytosis reached,"SM1 cells; M1 NextA treated macrophages, IgG control group (FIG. 4L)",approximately 20%
same,phagocytosis rate over time,"SM1 cells; M1 macrophages with SM1 cells, tracked for 4 hr (FIG. 4L)",steady increase in phagocytosis over time
same,tumor growth,SM1 melanoma tumors,moderately decreased tumor growth
same,tumor growth,SM1 melanoma tumors; listed as Nexturastat A,enhanced the antitumor efficacy of anti-CD47
same,IFNγ-driven Cd47 upregulation at the transcriptional level,SM1 melanoma cells,repressed these effects
same,IFNγ-driven Cd47 upregulation at the transcriptional level,B16 melanoma cells,repressed these effects
